Measurements taken from US9889111B2, “Pharmaceutical composition comprising omega-(arylsulfonyl)alkylnitrile” (OLATEC THERAPEUTICS LLC, priority 2012, dated 2018).

Key:
[1] = system: arachidonic acid-induced ear swelling; test: Topical arachidonic acid-induced ear swelling model in mice (topical application); assay type: in vivo, mice (male ICR); conditions: 20 μL applied 30 min before and 15 min after arachidonic acid, measured at 90 minutes
Protocol: The test compounds, indomethacin (positive control), and vehicle were evaluated for anti-inflammatory activity in a topical arachidonic acid-induced ear swelling model in mice. Male ICR mice weighing 22±2 g were used and randomly divided. Arachidonic Acid (0.5 mg in 20 μl of acetone:ethanol/1:1) was applied topically to the anterior and posterior surfaces of the right ear of each mice. Test compounds and vehicle, as listed in Table 1 were similarly applied 30 minutes before and 15 minutes after arachidonic acid application. The thickness of the right ear and the left ear was measured and the difference calculated as an indication of the inflammation in the right ear. Ear swelling was measured by a Dyer model micrometer gauge at 60 and 90 minutes after arachidonic acid application as an index of inflammation. Percent inhibition was calculated according to the formula: Ic−It/Ic×100, where Ic and It refers to increase of ear thickness (mm) in control and treated mice, respectively. ANOVA and Dunnett's test were employed to ascertain significant difference between vehicle control and treated groups. Significance is set at P<0.05 level. The test compounds, indomethacin (positive control), and vehicle were evaluated for anti-inflammatory activity in a topical arachidonic acid-induced ear swelling model in mice. Male ICR mice weighing 22±2 g were used and randomly divided; the test compound and vehicle control had 10 mice, and indomethacin had 5 mice. Arachidonic Acid (0.5 mg in 20 μl of acetone:ethanol/1:1) was applied topically to the anterior and posterior surfaces of the right ear of each mouse. Test substances and vehicle, as listed in Table 4 were similarly applied 30 min before and 15 min after arachidonic acid application. The thickness of the right ear and the left ear was measured and the difference calculated as an indication of the inflammation in the right ear. Ear swelling was measured by a Dyer model micrometer gauge at 60 and 90 minutes after arachidonic acid application as an index of inflammation. Percent inhibition was calculated according to the formula: Ic−It/Ic×100, where Ic and It refers to increase of ear thickness (mm) in control and treated mice, respectively. ANOVA and Dunnett's test were employed to ascertain significant difference between vehicle control and treated groups. Significance is set at P<0.05 level.

[2] = system: arachidonic acid induced ear swelling; test: Arachidonic acid induced ear swelling model in mice (oral administration); assay type: in vivo, mice (male ICR derived); conditions: for % Inhibition (ear swelling): Table 8, oral gavage, test compound 30 mg/kg 1 hour before, dexamethasone 0.3 mg/kg 3 hour before arachidonic acid, measured at 90 minutes
Protocol: 3-[(4-Methylphenyl)sulfonyl]propionitrile was suspended in vehicle (1% Tween 80 in water) to 3 mg/mL. The test compound, dexamethasone (positive control in vehicle), and vehicle were orally administered to mice and evaluated for anti-inflammatory activity in the topical arachidonic acid induced ear swelling model in mice.
Male ICR derived mice weighing 22±2 g were used in this experiment. 10 mice were used for each group (active compound, positive control, and vehicle). All animals were maintained in a controlled temperature (22-24° C.) and humidity (60%-70%) environment with 12-hour light/dark cycles for at least one week prior to use.
Arachidonic acid (0.5 mg in 20 μL acetone) was applied topically onto the anterior and posterior surfaces of the right ear of test animals to induce inflammation. Active compound in vehicle (10 mL/kg) and vehicle (10 mL/kg, […]) was orally administered by gavage 1 hour before arachidonic acid, whereas dexamethasone was orally administered by gavage 3 hour before arachidonic acid challenge. At 60 minutes and 90 minutes after arachidonic acid induction of ear edema, the thickness of the right ear and the left ear was measured and the difference calculated as an indication of the inflammation in the right ear.

[3] = Table 7, test compounds 375 mM, indomethacin 14 mM
[4] = Table 6, test compounds 375 mM, indomethacin 14 mM (0.5% w/v)

Structure (SMILES) | % Inhibition (ear swelling) [1, 3] | % Inhibition (ear swelling) [1, 4] | other results
N#CCCS(=O)(=O)c1ccc(Cl)c(Cl)c1 [3-(3,4-dichlorophenyl)sulfonylpropionitrile] | 28% | – | melting point: 137.7 to 140.2 °C
COc1ccc(S(=O)(=O)CCC#N)cc1 [3-(4-methoxyphenyl)sulfonylpropionitrile] | 23% | – | –
N#CCCS(=O)(=O)c1ccc2ccccc2c1 [3-(naphthalene-2-sulfonyl)propionitrile] | – | 25% | –
N#CCCS(=O)(=O)c1ccccc1 [3-(phenylsulfonyl)propionitrile] | – | 36% | –
N#CCCS(=O)(=O)c1ccc(Cl)cc1 [3-[(4-chlorophenyl)sulfonyl]propionitrile] | – | 20% | –
Cc1ccc(S(=O)(=O)CCC#N)cc1 [3-[(4-methylphenyl)sulfonyl]propionitrile] | – | 44% | % Inhibition (ear swelling) [2]: 16%; Inhibition in arachidonic acid induced ear swelling (in words) ([2]; oral administration, at 90 minutes): significant inhibition
C[C@@H]1C[C@H]2[C@@H]3CCC4=CC(=O)C=C[C@]4(C)[C@@]3(F)[C@@H](O)C[C@]2(C)[C@@]1(O)C(=O)CO [Dexamethasone, reference compound] | – | – | % Inhibition (ear swelling) [2]: 36%
COc1ccc2c(c1)c(CC(=O)O)c(C)n2C(=O)c1ccc(Cl)cc1 [Indomethacin, reference compound] | 58% | 57% | –
